Assay [1] deals with human fibroblasts. Briefly: Multinucleation of ML-infected cells with or without ERK5 pathway inhibitor (Example 13). In kind it is cell-based. The settings on record: addition of 2-5 μM inhibitor, 14 days after infection. The method, then:
(§1) In the same manner as in Example 12, human fibroblasts were infected with both a retrovirus vector incorporating MyoD1 gene and a retrovirus vector incorporating L-myc gene (ML). As a control, cells free of infection with a retrovirus vector were also prepared (−). A ERK5 pathway inhibitor, XMDB-92, was added at the indicated concentration to some groups. These were cultured in a myoblast differentiation medium in the same manner as in Example 12. 14 days after infection, nuclear staining was performed in the same manner as in Example 3. Images taken using a fluorescence microscope (Keyence BZ710) are shown (FIG. 13A, upper panel). In addition, the percentages of cells having 4 or more nuclei, cells having 2-3 nuclei and cells having one nucleus were calculated (FIG. 13A, lower panel).

Assay [2] concerns human fibroblasts. Briefly: Real-time RT-PCR of Myogenin, CKM, Dystrophin mRNA with ERK5 pathway inhibitor (Example 13). The assay is classed as cell-based. Conditions: ML-infected cells with inhibitor, 14 days after infection. The method, then:
as §1
In addition, 14 days after infection, RNA was extracted from the cells. As a control, RNA was also extracted from the primary human skeletal muscle cells (pSKMs). mRNAs of Myogenin, CKM, Dystrophin were quantified by real time RT-PCR.

Consider `CCOc1cc(N2CCC(O)CC2)ccc1Nc1ncc2c(n1)N(C)c1ccccc1C(=O)N2C` [XMD8-92], for which, in the assay with human fibroblasts [1], the “percentage of cells having 2-3 nuclei” value is reported as 21-23% and the “percentage of cells having not less than 4 nuclei” value is recorded as 10-12%. The “induction of expression of Myogenin, CKM, Dystrophin mRNA by ML gene transfer” value in the assay on human fibroblasts [2] is listed as “not suppressed”.

For the origin of these results see patent US11242541B2, “Skeletal muscle cells and method for inducing same” (KYOTO PREFECTURAL PUBLIC UNIVERSITY CORPORATION, priority 2016, dated 2022).
